Source: US6984500B2, “Method for detecting microorganisms and detection kit” (priority 2001, dated 2006)
≈ marks a conversion by molar mass, not a printed value.

How the values were obtained:
A. fumigatus ATCC 26430 [1] = assay: Colorimetric microplate drug susceptibility test (WST-8 coloring reagent, sucrose YN broth, NaOH sensitizing solution); format: cell-based, Aspergillus Fumigatus; details: for Drug concentration at or above which almost no color was exhibited visually: visual reading
Method: (§1) Aspergillus Fumigatus ATCC26430 was used.
The drug solutions so prepared were pipetted into a plate at 0.02 mL/well and dried to a solid under reduced pressure for 24 hours. A coloring reagent (containing 0.7 mmol/L WST-8, 0.0035 mmol/L 1-methoxy PMS, 0.5 mmol/L potassium ferricyanide, and 0.5 mmol/L of potassium ferrocyanide) was pipetted into each of the wells at 0.02 mL/well and they were again dried to a solid under reduced pressure for 24 hours.
6.7 g of YN Base (manufactured by Difco) and 20 g of sucrose were dissolved in about 900 mL of purified water, and the pH was adjusted to 7.0 with a 1N aqueous solution of sodium hydroxide. The solution was made up to 1000 mL with purified water and then filter sterilized using a 0.2 μm filter.
A tester strain was cultured using Sabouraud Dextrose Agar (manufactured by OXOID) at 35° C. for 7 days. 2 mL of sterile physiological saline containing 0.1% Tween 80 was added dropwise onto the culture medium so as to float spores. The above-mentioned physiological saline that had been added dropwise onto the culture medium was recovered and allowed to stand for 3 to 5 minutes, and after removing the precipitate it was mixed using a Vortex mixer to give a spore suspension. Dilution was carried out so that the absorbance at 530 nm was 0.09 to 0.11. 0.1 mL of the spore suspension so prepared was taken using a micro pipette, added to 20 mL of sucrose YN broth, and stirred using a Vortex mixer to give an inoculum. 0.2 mL of the inoculum was pipetted into each of the wells of the microplate for the test described in B, the plate was covered, and culturing was carried out at 35° C.±1° C. for 24 hours. As a blank, sucrose YN broth was added instead of the inoculum.
After 24 hours 0.02 mL of a 1.5 mol/L aqueous solution of sodium hydroxide was added to each well, and 5 minutes after the addition the absorbance at 630 nm was measured.
2. For ITCZ, the 80% inhibitory concentration (IC80) was determined.

A. fumigatus ATCC 26430 [2] = details: reference values of NCCLS M38-P; cited from earlier work
A. fumigatus ATCC 26430 [3] = assay: NCCLS M-38P turbidity method (0.2 mL micro broth dilution) antifungal susceptibility test; format: cell-based; details: Aspergillus fumigatus, ATCC26430, repeated tests, determination time 46 to 50 hours
Method: as §1
A comparative example was carried out according to NCCLS M-38P (0.2 mL culture system micro broth dilution method).

Compound | Drug concentration at or above which almost no color was exhibited visually (A. fumigatus ATCC 26430 [1]; 24 hours culture) [µg/mL] | Allowable range (MIC reference values described in NCCLS M38-P) (A. fumigatus ATCC 26430 [2]) [µg/mL] | MIC (A. fumigatus ATCC 26430 [3]) [µg/mL] | Drug concentration at or below which absorbance at 630 nm increased (FIG. 2) (A. fumigatus ATCC 26430 [1]; 24 hours culture, absorbance at 630 nm) [µg/mL] | MIC (A. fumigatus ATCC 26430 [1]; Aspergillus fumigatus, ATCC26430, 24 h) [µg/mL]
C[C@@H]1[C@H](O)[C@@H](C)/C=C/C=C/C=C/C=C/C=C/C=C/C=C/[C@H](O[C@@H]2O[C@H](C)[C@@H](O)[C@H](N)[C@@H]2O)C[C@@H]2O[C@](O)(C[C@@H](O)C[C@@H](O)[C@H](O)CC[C@@H](O)C[C@@H](O)CC(=O)O[C@H]1C)C[C@H](O)[C@H]2C(=O)O [AMPH, Amphotericin B] | ≥ 0.5 | 0.5 to 2.0 |  |  | 
CCC(C)n1ncn(-c2ccc(N3CCN(c4ccc(OCC5COC(Cn6cncn6)(c6ccc(Cl)cc6Cl)O5)cc4)CC3)cc2)c1=O (stereo not drawn) [ITCZ, Itraconazole] | ≥ 0.12 |  | 0.12 to 0.25 (≈ 0.17 to 0.354 µM) | ≤ 0.06 | 0.12 to 0.25
